Laboratory results as given in ChEMBL document CHEMBL3045373, “New thiazolidinyl analogs containing pyridine ring: synthesis, biological evaluation and QSAR studies” (2013).

How the values were obtained:
Rattus norvegicus = test: Anti-inflammatory activity against Rattus norvegicus Wistar (rat) assessed as inhibition of carrageenan-induced paw edema at 10 mg/kg, po administered 30 min prior to carrageenan challenge measured at 120 min by plethysmometeric analysis relative to untreated control; type: functional
Mus musculus = test: Analgesic activity in Mus musculus Swiss albino (mouse) assessed as inhibition of acetic acid-induced writhing at 50 mg/kg, po administered 30 min prior to acetic acid challenge measured at 5 to 15 min relative to untreated control; type: functional

Compound | inhibition in vivo at 10 mg/kg (Rattus norvegicus) | inhibition in vivo at 50 mg/kg (Mus musculus)
O=C1N/C(=N/c2ccccc2)S/C1=C\c1ccccn1 | 26.2% | 29.2%
O=C1N/C(=N/c2ccc(Cl)cc2)S/C1=C\c1ccccn1 | 34.8% | 41.7%
Cc1cccc(/N=C2/NC(=O)/C(=C/c3ccccn3)S2)c1 | 39.7% | 52.3%
Cc1ccc(/N=C2/NC(=O)/C(=C/c3ccccn3)S2)cc1 | 43.8% | 43.2%
O=C1N/C(=N/c2ccc(F)cc2)S/C1=C\c1ccccn1 | 34.7% | 43.2%
O=C1N/C(=N\Nc2ccccc2)S/C1=C\c1ccccn1 | 39.7% | 46.2%
O=C1N/C(=N\c2ccccc2[N+](=O)[O-])S/C1=C/c1ccccn1 | 34.8% | 36.7%
O=C1N/C(=N\Nc2ccc([N+](=O)[O-])cc2[N+](=O)[O-])S/C1=C\c1ccccn1 | 56.5% | 68.7%
COc1ccc(/N=C2\NC(=O)/C(=C/c3ccccn3)S2)cc1 | 39.1% | 42.4%
O=C1N/C(=N/c2cccc([N+](=O)[O-])c2)S/C1=C\c1ccccn1 | 43.5% | 62.3%
O=C1N/C(=N/c2ccc([N+](=O)[O-])cc2Cl)S/C1=C\c1ccccn1 | 39.7% | 37.4%
Cc1cccc(C)c1/N=C1/NC(=O)/C(=C/c2ccccn2)S1 | 39.7% | 51.5%
O=C1N/C(=N/c2ccccc2Cl)S/C1=C\c1ccccn1 | 26.2% | 36.2%
Cc1ccccc1/N=C1/NC(=O)/C(=C/c2ccccn2)S1 | 30.4% | 43.6%
O=C1N/C(=N/c2ccc(Br)cc2)S/C1=C\c1ccccn1 | 30.4% | 28.7%
O=C(O)Cc1ccccc1Nc1c(Cl)cccc1Cl [DICLOFENAC SODIUM] | 43.5% | 60.2%
